Eleven molecules from ChEMBL document CHEMBL1129362 (J Med Chem, 1996) can be followed below.

The species named for assay [1] is Cavia porcellus. Briefly: Compound was tested for agonist activity of isolated guinea pig gallbladder by using functional assay. As to conditions: read-out: ED50 (the source's name).
For assay [2], the target named is T1, Gastrin/cholecystokinin type B receptor (Homo sapiens, UniProt P32239).
T1 sequence (P32239 whole entry): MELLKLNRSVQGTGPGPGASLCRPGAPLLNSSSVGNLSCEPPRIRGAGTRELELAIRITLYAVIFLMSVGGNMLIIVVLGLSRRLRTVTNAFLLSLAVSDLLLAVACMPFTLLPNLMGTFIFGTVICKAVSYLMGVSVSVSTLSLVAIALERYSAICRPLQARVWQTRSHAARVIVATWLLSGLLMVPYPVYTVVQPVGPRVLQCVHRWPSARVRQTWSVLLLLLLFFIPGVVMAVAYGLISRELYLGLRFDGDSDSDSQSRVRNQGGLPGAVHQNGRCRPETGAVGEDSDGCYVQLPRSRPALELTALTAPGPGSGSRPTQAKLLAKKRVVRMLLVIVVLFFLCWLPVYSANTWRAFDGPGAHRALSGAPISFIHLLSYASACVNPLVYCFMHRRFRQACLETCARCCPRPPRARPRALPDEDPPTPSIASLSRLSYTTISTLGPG
Briefly: Binding affinity against human Cholecystokinin type B receptor by displacement of [125I]CCK-8. (Loss of bound radioactivity is the signal in a displacement assay; it reports binding, not function.)

For assay [3], the target named is Cholecystokinin receptor (Homo sapiens) (UniProt P32239+P32238). Briefly: Selectivity ratio between IC50 values of CCK-A and CCK-B. It is filed as protein assay.
For assay [4], the species on record is Cavia porcellus. In words: Relative efficacy determined as maximal contraction was observed at 30 uM standardized to CCK-8. It is filed as functional.
Assay [5] has as its target T2, Cholecystokinin receptor type A (Homo sapiens, UniProt P32238).
T2 sequence (P32238 whole entry): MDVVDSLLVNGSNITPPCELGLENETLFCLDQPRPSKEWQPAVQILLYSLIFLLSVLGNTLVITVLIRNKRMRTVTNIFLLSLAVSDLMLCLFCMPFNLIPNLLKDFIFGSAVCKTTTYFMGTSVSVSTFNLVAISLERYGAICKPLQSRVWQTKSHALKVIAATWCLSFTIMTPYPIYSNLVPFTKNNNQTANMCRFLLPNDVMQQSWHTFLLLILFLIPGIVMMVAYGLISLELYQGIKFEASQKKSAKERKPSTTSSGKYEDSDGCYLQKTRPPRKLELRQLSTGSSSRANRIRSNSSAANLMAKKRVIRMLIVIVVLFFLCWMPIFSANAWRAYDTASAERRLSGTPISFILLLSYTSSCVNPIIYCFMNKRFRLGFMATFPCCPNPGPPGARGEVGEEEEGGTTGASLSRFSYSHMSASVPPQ
Briefly: Binding affinity against human Cholecystokinin type A receptor by displacement of [125I]CCK-8.

Assay [6] concerns Mus musculus. Briefly: In vivo percent emptying of mouse gallbladder when administered orally. It is filed as functional.
Assay [7] has as its system Mus musculus. In words: In vivo percent emptying of mouse gallbladder when administered intraperitoneally. It is filed as functional.
Assay [8] deals with Mus musculus. In words: Effective dose against mouse gallbladder emptying when administered orally. It is filed as functional.
The subject of assay [9] is Mus musculus. Briefly: Effective dose against mouse gallbladder emptying when administered intraperitoneally. It is filed as functional.
For assay [10], the species on record is Cavia porcellus. Briefly: Relative efficacy as determined maximal contraction was observed at 30 uM standardized to CCK-8. It is filed as functional.
Assay [11] deals with Mus musculus. In words: Effective dose against mouse gall bladder emptying when administered intraperitoneally. It is filed as functional. As to conditions: ip.
The subject of assay [12] is Mus musculus. Briefly: Effective dose against mouse gall bladder emptying when administered orally. It is filed as functional. As to conditions: po.

Some results are limits rather than exact numbers.

One may read the IC50 as the concentration at which inhibition is half-maximal. Higher therefore signals weaker potency in that assay.

Consider `COc1ccc(N(C(=O)CN2C(=O)C(C)(Cc3c[nH]c4ccccc34)C(=O)N(c3ccccc3)c3ccccc32)C(C)C)cc1` (stereo unspecified), for which the EC50 in the assay listed under Cavia porcellus [1] stood at 530 nM. Also, in [2], the half-maximal inhibitory concentration (IC50) is 17400 nM. Moreover, the Selectivity ratio in [3] was found to be 2090. This molecule displayed a Max in the assay filed under Cavia porcellus [4] of 60%.
With `COc1ccc(N(C(=O)CN2C(=O)C(C)(Cc3n[nH]c4ccccc34)C(=O)N(c3ccccc3)c3ccccc32)C(C)C)cc1` (stereo unspecified), in the assay filed under Cavia porcellus [1], the EC50 came to 320 nM. In addition, the IC50 in assay [2] is 69200 nM. The Selectivity ratio in [3] came out at 5100. In addition, the Max in the assay listed under Cavia porcellus [4] stood at 80%.
As to `CC(C)N(C(=O)CN1C(=O)C(Cc2n[nH]c3ccccc23)C(=O)N(c2ccccc2)c2ccccc21)c1ccccc1` (stereo unspecified), in the assay listed under Cavia porcellus [1], the EC50 was found to be 140 nM. The IC50 in assay [5] was 87.1 nM; in assay [2], 178 nM. In assay [3], the Selectivity ratio stood at 2. The molecule also showed a Max in the assay listed under Cavia porcellus [4] of 90%.
Turning to `CC(C)N(C(=O)CN1C(=O)C(C)(Cc2c[nH]c3ccccc23)C(=O)N(c2ccccc2)c2ccccc21)c1ccccc1` (stereo unspecified), in the assay listed under Cavia porcellus [1], the EC50 was found to be 470 nM. The molecule further had an IC50 in assay [5] of 107 nM. The same molecule displayed a Max in the assay filed under Cavia porcellus [4] of 80%.
As to `COc1ccc(N(C(=O)CN2C(=O)C(Cc3c[nH]c4ccccc34)C(=O)N(c3ccccc3)c3ccccc32)C(C)C)cc1` (stereo unspecified), the EC50 in the assay listed under Cavia porcellus [1] came to 340 nM. Besides, the IC50 in assay [2] is 5250 nM. Besides, in [3], the Selectivity ratio was determined as 480. The same molecule yielded a Max in the assay filed under Cavia porcellus [4] of 70%.
In the case of `COc1ccc(N(C(=O)CN2C(=O)C(Cc3n[nH]c4ccccc34)C(=O)N(c3ccccc3)c3ccccc32)C(C)C)cc1` (stereo unspecified), the Activity with Mus musculus [6] and with Mus musculus [7] was less than 90% throughout. The EC50 in the assay listed under Cavia porcellus [1] is 109 nM. In addition, the ED50 in the assay on Mus musculus [8] was determined as 8 nM·kg; with Mus musculus [9], 0.2 nM·kg. In addition, the Selectivity ratio in assay [3] is 50. In the assay listed under Cavia porcellus [4], this molecule returned a Max of 100%.
Consider `COc1ccc(N(C(=O)CN2C(=O)C(Cc3nn(Cc4ccccc4)c4ccccc34)C(=O)N(c3ccccc3)c3ccccc32)C(C)C)cc1` (stereo unspecified), for which the EC50 in the assay filed under Cavia porcellus [1] is 340 nM. Besides, the IC50 in [5] is 309 nM; in assay [2], 100000 nM. In addition, in the assay filed under Cavia porcellus [10], the Max is 40%.
For the molecule `COc1ccc(N(C(=O)CN2C(=O)C(Cc3nn(C)c4ccccc34)C(=O)N(c3ccccc3)c3ccccc32)C(C)C)cc1` (stereo unspecified), the EC50 in the assay listed under Cavia porcellus [1] was 70 nM. The half-maximal inhibitory concentration (IC50) is 42.7 nM in [5] and 2400 nM in assay [2]. Further, the Selectivity ratio in assay [3] stood at 60. In addition, the Max in the assay listed under Cavia porcellus [4] stood at 90%.
With `CSCC[C@H](NC(=O)[C@H](Cc1ccc(OS(=O)(=O)O)cc1)NC(=O)[C@@H](N)CC(=O)O)C(=O)NCC(=O)N[C@@H](Cc1c[nH]c2ccccc12)C(=O)N[C@@H](CCSC)C(=O)N[C@@H](CC(=O)O)C(=O)N[C@@H](Cc1ccccc1)C(N)=O` [SINCALIDE], the EC50 in the assay filed under Cavia porcellus [1] came to 2 nM. The same molecule came in with an Empty in the assay with Mus musculus [7] of less than 95%. The molecule also gave an ED50 in the assay on Mus musculus [11] of 3e-05 µmol/kg. Further, the Max in the assay filed under Cavia porcellus [10] is 100%.
`CC(C)N(C(=O)CN1C(=O)C(C)(Cc2n[nH]c3ccccc23)C(=O)N(c2ccccc2)c2ccccc21)c1ccccc1` (stereo unspecified): the EC50 in the assay filed under Cavia porcellus [1] stood at 20 nM. Moreover, the values for the half-maximal inhibitory concentration (IC50) in assay [5] and in assay [2] were 120 nM and 2630 nM, respectively. In addition, the Selectivity ratio in assay [3] came out at 20. Moreover, the Max in the assay filed under Cavia porcellus [4] is listed as 80%.
`CC(C)N(C(=O)CN1C(=O)C(C)(CC(=O)Nc2ccccc2)C(=O)N(c2ccccc2)c2ccccc21)c1ccccc1` (stereo unspecified): the Empty with Mus musculus [6] and in the assay with Mus musculus [7] was less than 70% each time. In addition, in the assay listed under Cavia porcellus [1], the EC50 worked out at 190 nM. In addition, the ED50 with Mus musculus [12] was 1 µmol/kg; in the assay on Mus musculus [11], 0.03 µmol/kg. This molecule showed a Max in the assay filed under Cavia porcellus [10] of 80%.
